Experimental data taken from patent publication US9051595B2, “Malt1 specific cleavage in assay and screening method” (University of Lausanne, priority 2007, dated 2015).
Entries after “also recorded” stand apart in the source; their conditions may differ. Peptide text beside a SMILES is read from it. * marks the point of attachment. Cbz = O=C(OCc1ccccc1)*; CH2F = FC*

Experiments:
Type in all cases: cell-based, human
Bcl10 [1] = test: Western blot for the faster migrating Bcl10 species (Bcl10 cleavage) in stimulated Jurkat cells pre-treated with inhibitors; settings: for generation of the faster migrating Bcl10 species: Jurkat cells pre-incubated 30 min with inhibitor, stimulated with CD3/CD28, FIG. 2a; for anti-CD3/CD28-induced reduction in the apparent molecular weight of Bcl10: stimulated with anti-CD3 and anti-CD28, FIG. 5c
Procedure: For short term stimulations, cells were re-suspended at a density of 5×10^7 cells/mi in RPMI with 0.5% serum and pre-warmed for 10 min at 37° C. before addition of the stimulating agent.
T-cell stimulation was initiated by addition of PMA (10 ng/ml, Alexis) and ionomycin (1 μM, Calbiochem) (P/I) or a combination of anti-human CD3ε (10 μg/ml of OKT3, Apotech) and anti-CD28 (10 μg/ml of CD28.2, Immunotech) antibodies (CD3/CD28), immediately followed by addition of 5 μg/ml of cross-linking goat anti-mouse antibody (Southern Biotech).
Stimulations were stopped by addition of ice-cold Tris-NaCl buffer (20 mM Tris-HCl pH 7.4, 150 mM NaCl), and pelleted cells were lysed in Tris-NaCl lysis buffer containing 1% NP40, proteinase inhibitors (Complete, Roche) and phosphatase inhibitors (cocktails I and II, Sigma).
Postnuclear cell lysates were boiled with reducing SDS-sample buffer and analyzed on 16×20 cm gels by 15% SDS-PAGE according to Anderson, N. L. & Anderson, N. G. Analytical techniques for cell fractions. XXII. Two-dimensional analysis of serum and tissue proteins: multiple gradient-slab gel electrophoresis. Anal Biochem 85, 341-54 (1978).
Primary antibodies used are monoclonal mouse anti-phospho ERK (Sigma), rabbit anti-phospho-IκBα (5A5, Cell Signalling), rabbit anti-IκBα (Sigma), and rabbit anti-Bcl10 (H-197, Santa Cruz).
In a first approach, Jurkat cells were pre-incubated with either the pan-PKC inhibitor bisindolyl-maleimide VIII (BIM) or with Gö6976, an inhibitor of classical (Ca2+- and DAG-dependent) PKC isoforms, before stimulation with CD3/CD28 as indicated in Example 1. For pre-incubation, the cells were incubated with […] Gö6976 (Calbiochem) or 500 nM Bisindoleylmaleimide VIII acetate (Alexis), or solvent control for 30 min at 37° in RPMI with 0.5% serum directly prior to stimulation.
Cell lysis and western blots was done as in Example 1. The primary antibody for the experiment with VSV-tagged wt or VSV-tagged Carma1-DN and Carma1-coiled-coil construct is monoclonal mouse anti-VSV (P5D4, Sigma). For Carma1, a rabbit anti-Carma1 (AL220, Alexis) antibody was used.
(§1) For testing if the observed proteolytic activity is an indirect effect of Malt1 on other proteases, Jurkat cells were pretreated with the lysosomal or proteasomal inhibitors (NH4^+/leupeptin or MG132) or solvent control before stimulation with PMA and ionomycin, and postnuclear lysates were analyzed by Western blot as indicated.
(§2) In an analogue experiment, Jurkat cells were pretreated with the pan-caspase inhibitor zVAD-ink or solvent control, and stimulated with anti-CD3 and anti-CD28 antibodies or hexameric recombinant FasL for the indicated times. Postnuclear lysates were analyzed by Western blot with the indicated primary antibodies (FIG. 5c). A non-specific band (n.s.) of the anti-Bcl10 blot served as a loading control.

caspase-8 = test: FasL-induced caspase-8 activation in Jurkat cells (Western blot); settings: Jurkat cells pretreated with inhibitor, hexameric recombinant FasL; FIG. 5c
Procedure: as §2

Bcl10 [2] = test: Activation-induced cleavage of Bcl10 in living Jurkat T cells and CTLs (Western blot); settings: Jurkat T cells or CTLs pre-incubated 1 h with inhibitor, PMA and ionomycin; FIGS. 11b, c
IL-2 = IL-2 production of Jurkat cells stimulated with Raji cells and superantigen SEE; settings: FIG. 11e
Procedure: To test the efficiency of inhibitors, Jurkat T cells stimulated or not with PMA and ionomycin for 20 min are mechanically lysed in cleavage assay buffer (see example 4) in the absence or presence of increasing concentrations of a irreversble cell permeable inhibitor peptide (z-VRPR-fink). This inhibitor was designed based on an optimal substrate cleavage sequence reported for the plant metacaspase AtMC9 (see ref. by Vercammen et al. 2006, J. Mol. Biol., 364(4):625-36). Malt1 protease activity is determined as described in example 4. […] Moreover, experiments are performed to assess the effect of the inhibitor on anti-CD3/CD28-induced NF-κB activation in Jurkat T cells, on IL-2 production of Jurkat cells stimulated by incubation with antigen-presenting cells (Raji cells in combination with the superantigen SEE) and on stimulation-induced adhesion to fibronectin (see example 7)).

Jurkat T cells = test: Stimulation-induced adhesion of Jurkat T cells to fibronectin; settings: FIG. 11f
Procedure: Central areas of tissue culture dishes (35-mm×10-mm) were coated for 90 min at 25° C. with 50 μl of fibronectin solution (40 μg/ml; Roche). Coated dishes were washed three times with PBS (without Ca2+ and Mg2+) and were blocked for 2 h with 1% (wt/vol) BSA in PBS. Cells were washed with Hank's balanced-salt solution (Gibco) and were left unstimulated or were stimulated at 37° C. for 30 min with MnCl2 (1 mM) or PMA (100 ng/ml), or for 5 min with anti-human CD3 and anti-CD28 (see example 1). Subsequently, cell suspensions were added to fibronectin-coated tissue culture dishes followed by incubation for additional 30 min at 37° C. Non-adherent cells were removed by washing of the dishes three to five times with Hank's balanced-salt solution. Adherent cells were counted in six separate fields with a microscope with an ocular counting reticule.
To test the efficiency of inhibitors, Jurkat T cells stimulated or not with PMA and ionomycin for 20 min are mechanically lysed in cleavage assay buffer (see example 4) in the absence or presence of increasing concentrations of a irreversble cell permeable inhibitor peptide (z-VRPR-fink). This inhibitor was designed based on an optimal substrate cleavage sequence reported for the plant metacaspase AtMC9 (see ref. by Vercammen et al. 2006, J. Mol. Biol., 364(4):625-36). Malt1 protease activity is determined as described in example 4. […]

NF-κB = test: anti-CD3/CD28-induced NF-κB activation in Jurkat T cells; settings: FIG. 11d
P-IκB = test: Western blot for P-IκB in PMA/ionomycin-stimulated Jurkat cells; settings: Jurkat cells pretreated with inhibitor, PMA and ionomycin; FIG. 5b
Procedure: as §1

## Cn1cc(C2=C(c3cn(CCCN)c4ccccc34)C(=O)NC2=O)c2ccccc21 [BIM, bisindolyl-maleimide VIII]
Bcl10 [1]
  generation of the faster migrating Bcl10 species: prevented

## COC(=O)C[C@H](NC(=O)[C@H](C)NC(=O)[C@@H](NC(=O)OCc1ccccc1)C(C)C)C(=O)CF [zVAD-fmk] (Cbz-Val-Ala-Asp(OMe)-CH2F)
Bcl10 [1]; Jurkat cells pretreated with inhibitor
  anti-CD3/CD28-induced reduction in the apparent molecular weight of Bcl10: no effect
Bcl10 [1]; Jurkat cells pretreated with inhibitor, listed as Z-VAD-fmk
  anti-CD3/CD28-induced reduction in the apparent molecular weight of Bcl10: lack of an effect
caspase-8
  FasL-induced caspase-8 activation: potently inhibited

## Cn1c2ccccc2c2c3c(c4c5ccccc5n(CCC#N)c4c21)CNC3=O [Gö6976]
Bcl10 [1]
  generation of the faster migrating Bcl10 species: not Gö6976 prevented

## z-VRPR-fmk (Cbz-VRPR-CH2F)
Bcl10 [2]
  activation-induced cleavage of Bcl10: reduction
IL-2
  capacity of T cells to produce IL-2: impairs
Jurkat T cells
  capacity of T cells to adhere to fibronectin upon T-cell activation: impairs
NF-κB
  capacity of T cells to activate NF-κB: impairs

## CC(C)C[C@@H](C=O)NC(=O)[C@H](CC(C)C)NC(=O)[C@H](CC(C)C)NC(=O)OCc1ccccc1 [MG132] (Cbz-Leu-Leu-Leu-aldehyde)
Bcl10 [1]; Jurkat cells pretreated with inhibitor, stimulated with PMA and ionomycin, FIG. 5a, 5b
  generation of the faster migrating Bcl10 species corresponding to Bcl10 cleavage: did not affect; also recorded: lack of an effect
P-IκB
  stabilization of P-I[…]B: efficiently stabilized
